Measurements taken from ChEMBL document CHEMBL4665805, “Expression of the Clifednamide Biosynthetic Pathway in Streptomyces Generates 27,28-seco-Derivatives” (J Nat Prod, 2020).
Active and inactive are the calls of the source. The rule behind the calls is not given here.

Key:
Fusarium graminearum = assay: Antimicrobial activity against Fusarium graminearum at 50 microg/disk by disc diffusion assay; format: functional, organism-based; details: dose 50.0 µg/disk
Staphylococcus aureus = assay: Antimicrobial activity against Staphylococcus aureus ATCC 25923 at 20 microg/disk by disc diffusion assay; format: functional, organism-based; details: dose 20.0 µg/disk
Streptomyces sp. = assay: Antimicrobial activity against Streptomyces sp. S001 at 20 microg/disk by disc diffusion assay; format: functional, organism-based; details: dose 20.0 µg/disk
Bacillus subtilis = assay: Antimicrobial activity against Bacillus subtilis at 20 microg/disk by disc diffusion assay; format: functional, organism-based; details: dose 20.0 µg/disk
Salmonella typhimurium = assay: Antimicrobial activity against Salmonella enterica serovar Typhimurium UK-1 x8956 at 20 microg/disk by disc diffusion assay; format: functional, organism-based; details: Salmonella enterica subsp. enterica serovar Typhimurium, dose 20.0 µg/disk
Xanthomonas oryzae = assay: Antimicrobial activity against Xanthomonas oryzae pv. oryzicola RS105 at 20 microg/disk by disc diffusion assay; format: functional; details: dose 20.0 µg/disk
Pythium aphanidermatum = assay: Antimicrobial activity against Pythium aphanidermatum at 50 microg/disk by disc diffusion assay; format: functional, organism-based; details: dose 50.0 µg/disk
MIA PaCa-2 = assay: Cytotoxicity against human MIA PaCa-2 cells assessed as reduction in cell viability by MTT assay; format: functional, cell-based
A549 = assay: Cytotoxicity against human A549 cells assessed as reduction in cell viability by MTT assay; format: functional, cell-based

SMILES	Activity (Fusarium graminearum)	Activity (Staphylococcus aureus)	Activity (Streptomyces sp.)	Activity (Bacillus subtilis)	Activity (Salmonella typhimurium)	Activity (Xanthomonas oryzae)	Activity (Pythium aphanidermatum)	IC50 (MIA PaCa-2) [µM]	IC50 (A549) [µM]
CC[C@H]1[C@@H]2C=C[C@H](/C=C/C=C/C(N)=O)[C@H](/C=C/C=C/C(=O)C3=C(O)[C@H](CCC(=O)O)NC3=O)[C@H]2C[C@H]1C	inactive	inactive	inactive	inactive	inactive	inactive	inactive		
CC(=O)[C@H]1[C@@H]2C=C[C@@H]3[C@H]4C/C=C\C(=O)NCCC[C@@H]5NC(=O)C(=C5O)C(=O)/C=C/[C@@H]4C[C@@H]3[C@H]2C[C@H]1C	inactive	inactive	inactive	inactive	inactive	inactive	inactive	2.4	1.4
CC(=O)[C@H]1[C@@H]2C=C[C@@H]3[C@@H](C/C=C\C(N)=O)[C@H](/C=C/C(=O)C4=C(O)[C@H](CCC(=O)O)NC4=O)C[C@@H]3[C@H]2C[C@H]1C	inactive	inactive	inactive	inactive	inactive	inactive	inactive		
CC(O)[C@H]1[C@@H]2C=C[C@@H]3/C=C/C=C/C(=O)NCC[C@H](O)[C@@H]4NC(=O)C(=C4O)C(=O)/C=C/C=C/[C@@H]3[C@H]2C[C@H]1C (some centres undefined)	inactive	inactive	inactive	inactive	inactive	inactive	inactive		
CC(=O)[C@H]1[C@@H]2C=C[C@@H]3/C=C/C=C/C(=O)NCCC[C@@H]4NC(=O)C(=C4O)C(=O)/C=C/C=C/[C@@H]3[C@H]2C[C@H]1C	inactive	inactive	inactive	inactive	inactive	inactive	inactive		
CC(=O)[C@H]1[C@@H]2C=C[C@@H]3/C=C/C=C/C(=O)NCC[C@H](O)[C@@H]4NC(=O)C(=C4O)C(=O)/C=C/C=C/[C@@H]3[C@H]2C[C@H]1C	inactive	inactive	inactive	inactive	inactive	inactive	inactive		
C[C@@H]1C[C@H]2[C@@H](C=C[C@@H]3[C@H]4C/C=C\C(=O)NCC[C@H](O)[C@@H]5NC(=O)C(=C5O)C(=O)/C=C/[C@@H]4C[C@@H]32)[C@@H]1C(=O)CO	inactive	inactive	inactive	inactive	inactive	inactive	inactive		
CC(=O)[C@H]1[C@@H]2C=C[C@@H]3[C@H]4C/C=C\C(=O)NCC[C@H](O)[C@@H]5NC(=O)C(=C5O)C(=O)/C=C/[C@@H]4C[C@@H]3[C@H]2C[C@H]1C	inactive	inactive	inactive	inactive	inactive	inactive	inactive	1	0.53
COc1cccc2c1C(=O)c1c(O)c3c(c(O)c1C2=O)C[C@@](O)(C(=O)CO)C[C@@H]3O[C@H]1C[C@H](N)[C@H](O)[C@H](C)O1 [DOXORUBICIN]								0.43	
CC(=O)[C@H]1[C@@H]2C=C[C@H](/C=C/C=C/C(N)=O)[C@H](/C=C/C=C/C(=O)C3=C(O)[C@H](CCC(=O)O)NC3=O)[C@H]2C[C@H]1C	inactive	inactive	inactive	inactive	inactive	inactive	inactive	9.6	
